In patent US7186784B2, “Phosphorus-containing carboxylic acid derivatives process for preparations thereof and flame retardant” (NOF Corporation, priority 2001, dated 2007):

Assays:
[1] = Storage stability test in blend with epoxy resin YDPN 638; conditions: 1:1 by weight with epoxy resin YDPN 638, room temperature; for Stability Test: 30 days, viscosity increase observed visually
Excerpt: Then a visual observation was made about an increase in the viscosity thereof.

[2] = Dissolution on preparing the resin composition; format: physicochemical; conditions: 20.0 parts M-Acid with Epicote 828, CIC acid derivative and Nofcure-LC-1, mixed in a vial
Excerpt: An attempt was made to prepare a resin composition by mixing and agitating in a vial, 5.06 parts by weight of Epicote 828, 4.94 parts by weight of a derivative from CIC acid by n-propylvinyl ether, 20.0 parts by weight of unmodified M-Acid and 0.21 parts by weight of Nofcure-LC-1. However, the M-Acid was not dissolved, thereby forming non-homogeneous and opaque suspension.

SMILES	Stability Test: time before hardening (figure in parentheses) [1]	Stability Test [1]	dissolution in resin composition [2]
CCOP(=O)(CC(CC(=O)O)C(=O)O)OCC (stereo not shown) [DEHP-ItaA]	5 min	Hardened	–
O=C(O)CC(CP1(=O)Oc2ccccc2-c2ccccc21)C(=O)O (stereo not shown) [M-Acid]	–	–	not dissolved
O=C(O)CCC(CC(=O)O)(C(=O)O)P(=O)(O)O (stereo not shown) [PBTC, 2-phosphonobutane-1,2,4-tricarboxylic acid]	15 min	Hardened	–
O=C(O)CC(CP(=O)(Oc1ccccc1)Oc1ccccc1)C(=O)O (stereo not shown) [Ref. Example. 7]	5 min	Hardened	–
